The text below walks through data of patent US11986475B1, “Compositions and methods for treating cancer” (A2A Pharmaceuticals, Inc., priority 2022, dated 2024).

For experiment [1], the system named is MDA-MB-231. Kind of experiment: Cell viability assay (SRB or CTG) in MDA-MB-231. Type of experiment: cell-based. The conditions noted are these: Homo sapiens, MDA-MB-231, 72 h, 3 days after drug treatment. The protocol:
(§1) Human breast carcinoma cell line, MDA-MB-231 and human endometrial cancer cell line, HEC-59 were purchased from ATCC (American Type Culture Collection; USA). MDA-MB-231 cells were cultured in Dulbecco's modified Eagle's medium (Lonza, NJ, USA), and HEC-59 were grown in Iscove's Modified Dulbecco's Medium (Lonza, NJ, USA), supplemented with 10% fetal bovine serum (FBS, Lonza), 1% non-essential amino acid (NEAA), 2 mM L-glutamine (Sigma Aldrich, MO, USA) and 50 U/ml penicillin/streptomycin (P/S). All cell lines were tested regularly using MycoAlert Mycoplasma Detection Kit (Lonza). The cumulative length of the cells between thawing and use in the experiments was less than 20 passages.
(§2) 4000 cells/well of MDA-MB-231 and HEC-59 cells were seeded in a 96 well plate in 80 μL media/well. Approximately 18 hours later, 3× drug solutions were prepared by serial dilution (100, 10, 5, 1, 0.5, 0.3, 0.1, 0.05, 0.01 μM), and the drug containing media was added to each well with a volume of 40 μL. For MDA-MB-231, 3 days after drug treatment, the SRB or CTG assay was performed. HEC59, the drug containing media was renewed at day 4. After 7 days total, the SRB or CTG assay was performed.

The test system of experiment [2] is HEC-59. Kind of experiment: Cell viability assay (SRB or CTG) in HEC-59. The class given is cell-based. The conditions noted are these: Homo sapiens, 7 days total, media renewed at day 4, SRB or CTG. As to the method: as §1, §2

`C[C@@H]1CN(c2ncc(F)c(Nc3cc(-c4ccc(OC(F)F)cc4)cnn3)n2)C[C@@H](C)O1` [Compound 90, 5-(4-(difluoromethoxy)phenyl)-N-(2-((2R,6R)-2,6-dimethylmorpholino)-5-fluoropyrimidin-4-yl)pyridazin-3-amine]: the IC50 in experiment [1] worked out at 533 nM; in experiment [2] it was 1100 nM.

`C[C@H]1CN(c2ncc(F)c(Nc3cc(-c4ccc(OC(F)F)cc4)cnn3)n2)C[C@H](C)O1` [Compound 91, 5-(4-(difluoromethoxy)phenyl)-N-(2-((2S,6S)-2,6-dimethylmorpholino)-5-fluoropyrimidin-4-yl)pyridazin-3-amine]: the IC50 was found to be 328 nM in experiment [1] and 200 nM in experiment [2].

`Fc1cnc(N2CCOC3CC32)nc1Nc1cc(-c2ccc(OC(F)F)cc2)cnn1` (stereo not drawn) [Compound 103, N-(2-(2-oxa-5-azabicyclo[4.1.0]heptan-5-yl)-5-fluoropyrimidin-4-yl)-5-(4-(difluoromethoxy)phenyl)pyridazin-3-amine]: the IC50 in experiment [1] and in experiment [2] was > 10000 nM throughout.

As for `Fc1cnc(N2CCCC2)nc1Nc1cc(-c2ccc(OC(F)F)cc2)cnn1` [Compound 104, 5-(4-(difluoromethoxy)phenyl)-N-(5-fluoro-2-(pyrrolidin-1-yl)pyrimidin-4-yl)pyridazin-3-amine], the figures for the IC50 in experiment [1] and in experiment [2] were 345 nM and 86 nM, respectively.

With `C[C@@H]1CN(c2nc(F)cc(Nc3cc(-c4ccc(OC(F)F)cc4)cnn3)n2)C[C@H](C)O1` [Compound 131, 5-(4-(difluoromethoxy)phenyl)-N-(2-((2R,6S)-2,6-dimethylmorpholino)-6-fluoropyrimidin-4-yl)pyridazin-3-amine], the IC50 in experiment [1] turned out to be 181 nM; in experiment [2], 142 nM.

Take `C[C@@H]1CN(c2nccc(Nc3cc(-c4ccc(OC(F)F)cc4)cnc3F)n2)C[C@H](C)O1` [Compound 182, N-(5-(4-(difluoromethoxy)phenyl)-2-fluoropyridin-3-yl)-2-((2R,6S)-2,6-dimethylmorpholino)pyrimidin-4-amine]: the IC50 stood at 1090 nM in experiment [1] and 290 nM in experiment [2].

Take `C[C@@H]1CN(c2ccc(F)c(Nc3cc(-c4ccc(OC(F)F)cc4)cnn3)n2)C[C@H](C)O1` [Compound 223, 5-(4-(difluoromethoxy)phenyl)-N-(6-((2R,6S)-2,6-dimethylmorpholino)-3-fluoropyridin-2-yl)pyridazin-3-amine]: the IC50 in experiment [1] turned out to be 84 nM; in experiment [2], 61 nM.

As to `C[C@@H]1CN(c2nccc(Nc3cc(-c4ccc(OC(F)F)cc4)c[nH]c3=O)n2)C[C@H](C)O1` [Compound 264, 5-(4-(difluoromethoxy)phenyl)-3-((2-((2R,6S)-2,6-dimethylmorpholino)pyrimidin-4-yl)amino)pyridin-2(1H)-one], the IC50 was determined as 202 nM in experiment [1] and 121 nM in experiment [2].

On to `COc1ncc(-c2ccc(OC(F)F)cc2)cc1Nc1ccnc(N2C[C@@H](C)O[C@@H](C)C2)n1` [Compound 305, N-(5-(4-(difluoromethoxy)phenyl)-2-methoxypyridin-3-yl)-2-((2R,6S)-2,6-dimethylmorpholino)pyrimidin-4-amine], for which the IC50 in experiment [1] and in experiment [2] was > 10000 nM each time.

As for `C[C@@H]1CN(c2ncc(F)c(Nc3cc(-c4ccc(OC(F)F)cc4)c[nH]c3=O)n2)C[C@H](C)O1` [Compound 346, 5-(4-(difluoromethoxy)phenyl)-3-((2-((2R,6S)-2,6-dimethylmorpholino)-5-fluoropyrimidin-4-yl)amino)pyridin-2(1H)-one], the IC50 in experiment [1] amounted to 1050 nM; in experiment [2], 784 nM.

On to `COc1ncc(-c2ccc(OC(F)F)cc2)cc1Nc1nc(N2C[C@@H](C)O[C@@H](C)C2)ncc1F` [Compound 387, N-(5-(4-(difluoromethoxy)phenyl)-2-methoxypyridin-3-yl)-2-((2R,6S)-2,6-dimethylmorpholino)-5-fluoropyrimidin-4-amine], for which the IC50 in experiment [1] and in experiment [2] was > 10000 nM throughout.

As to `C[C@@H]1CN(c2cc(Nc3cc(-c4ccc(OC(F)F)cc4)cnn3)ccn2)C[C@H](C)O1` [Compound 428, 5-(4-(difluoromethoxy)phenyl)-N-(2-((2R,6S)-2,6-dimethylmorpholino)pyridin-4-yl)pyridazin-3-amine], the IC50 in experiment [1] is 794 nM; in experiment [2] it was > 10000 nM.

As to `C[C@@H]1CN(c2cc(Nc3cc(-c4ccc(OC(F)F)cc4)cnn3)c(F)cn2)C[C@H](C)O1` [Compound 469, 5-(4-(difluoromethoxy)phenyl)-N-(2-((2R,6S)-2,6-dimethylmorpholino)-5-fluoropyridin-4-yl)pyridazin-3-amine], the IC50 was 645 nM in experiment [1] and 1300 nM in experiment [2].

`Cc1nnc(Nc2nc(N3C[C@@H](C)O[C@@H](C)C3)ncc2F)cc1-c1ccc(OC(F)F)cc1` [Compound 508, 5-(4-(difluoromethoxy)phenyl)-N-(2-((2R,6S)-2,6-dimethylmorpholino)-5-fluoropyrimidin-4-yl)-6-methylpyridazin-3-amine]: the IC50 in experiment [1] was > 10000 nM; in experiment [2], 7260 nM.

For `COc1nnc(Nc2nc(N3C[C@@H](C)O[C@@H](C)C3)ncc2F)cc1-c1ccc(OC(F)F)cc1` [Compound 526, 5-(4-(difluoromethoxy)phenyl)-N-(2-((2R,6S)-2,6-dimethylmorpholino)-5-fluoropyrimidin-4-yl)-6-methoxypyridazin-3-amine], the IC50 is > 10000 nM in experiment [1] and 1180 nM in experiment [2].

As to `CNc1nnc(Nc2nc(N3C[C@@H](C)O[C@@H](C)C3)ncc2F)cc1-c1ccc(OC(F)F)cc1` [Compound 544, 4-(4-(difluoromethoxy)phenyl)-N6-(2-((2R,6S)-2,6-dimethylmorpholino)-5-fluoropyrimidin-4-yl)-N3-methylpyridazine-3,6-diamine], the IC50 in experiment [1] was > 10000 nM; in experiment [2] it was 2720 nM.

For `C[C@@H]1CN(c2ncc(F)c(Nc3cc(-c4ccc(OC(F)F)cc4)c(C(=O)O)nn3)n2)C[C@H](C)O1` [Compound 562, 4-(4-(difluoromethoxy)phenyl)-6-((2-((2R,6S)-2,6-dimethylmorpholino)-5-fluoropyrimidin-4-yl)amino)pyridazine-3-carboxylic acid], the IC50 in experiment [1] and in experiment [2] was > 10000 nM in each case.

In the case of `CC(=O)c1nnc(Nc2nc(N3C[C@@H](C)O[C@@H](C)C3)ncc2F)cc1-c1ccc(OC(F)F)cc1` [Compound 580, 1-(4-(4-(difluoromethoxy)phenyl)-6-((2-((2R,6S)-2,6-dimethylmorpholino)-5-fluoropyrimidin-4-yl)amino)pyridazin-3-yl)ethan-1-one], the IC50 in experiment [1] and in experiment [2] was > 10000 nM each time.

For `C[C@@H]1CN(c2ncc(F)c(Nc3cc(-c4ccc(OC(F)F)cc4)c(N)nn3)n2)C[C@H](C)O1` [Compound 598, 5-(4-(difluoromethoxy)phenyl)-N3-(2-((2R,6S)-2,6-dimethylmorpholino)-5-fluoropyrimidin-4-yl)pyridazine-3,6-diamine], the IC50 amounted to 805 nM in experiment [1] and 9850 nM in experiment [2].

Regarding `COC(=O)c1nnc(Nc2nc(N3C[C@@H](C)O[C@@H](C)C3)ncc2F)cc1-c1ccc(OC(F)F)cc1` [Compound 616, methyl 4-(4-(difluoromethoxy)phenyl)-6-((2-((2R,6S)-2,6-dimethylmorpholino)-5-fluoropyrimidin-4-yl)amino)pyridazine-3-carboxylate], the IC50 in experiment [1] and in experiment [2] was > 10000 nM in each case.

On to `CNC(=O)c1nnc(Nc2nc(N3C[C@@H](C)O[C@@H](C)C3)ncc2F)cc1-c1ccc(OC(F)F)cc1` [Compound 634, 4-(4-(difluoromethoxy)phenyl)-6-((2-((2R,6S)-2,6-dimethylmorpholino)-5-fluoropyrimidin-4-yl)amino)-N-methylpyridazine-3-carboxamide], for which the IC50 in experiment [1] and in experiment [2] was > 10000 nM in each case.
